Measurements reported in article PMC11053489 (Viruses, 2024).
Read-outs that look alike come from different tables or passages of the source.

Columns and labels:
[1] = tested on: SARS-CoV-2 (hCoV-19/USA-WA1/2020) in Calu-3 cells; assay: microbe, parasite or virus in culture; format: cell-based; conditions: for EC50: read-out: Calu-3 SARS-CoV-2 EC50; for EC90: read-out: Calu-3 SARS-CoV-2 EC90
[2] = tested on: SARS-CoV-2 (hCoV-19/USA-WA1/2020) in Vero CCL-81 cells; assay: microbe, parasite or virus in culture; format: cell-based; conditions: for anti-SARS-CoV-2 activity (in words), concentrations up to 100 μM: Vero CCL-81 cells
[3] = tested on: CCRF-CEM cells; conditions: human
[4] = tested on: SARS-CoV-2 in Vero E6 cells; conditions: read-out: EC50, SARS-CoV-2 infectivity in Vero E6 cells; cited from earlier work
[5] = in vitro; conditions: human, Caco-2
[6] = in vitro; conditions: African green monkey
[7] = in vitro; conditions: human
[8] = cited from earlier work
[9] = tested on: Vero E6 cells; conditions: read-out: CC50 in Vero E6 cells; cited from earlier work
[10] = tested on: SARS-CoV-2 (hCoV-19/USA-WA1/2020) in Caco-2 cells; assay: microbe, parasite or virus in culture; conditions: Severe acute respiratory syndrome coronavirus 2, Caco-2, 72 h; for EC50: read-out: Caco-2 SARS-CoV-2 EC50; for EC90: read-out: Caco-2 SARS-CoV-2 EC90
[11] = 20 mg/kg, once (dog or cat); Cmax × Fun
[12] = tested on: SARS-CoV-2 (hCoV-19/USA-WA1/2020) in Caco-2 cells; conditions: Caco-2
[13] = human, in vivo
[14] = in vitro; conditions: human; remark: listed apart in the source
[15] = in vitro; conditions: human; remark: listed apart in the source
[16] = in vitro; conditions: human; remark: listed apart in the source
[17] = remdesivir following IV infusion; cited from earlier work
[18] = monkey, in vivo, po; cited from earlier work
[19] = cynomolgus monkey, in vivo; cited from earlier work
[20] = dog, in vivo; cited from earlier work
[21] = mice and rats; cited from earlier work
[22] = cited from earlier work; remark: listed apart in the source
[23] = tested on: Vero CCL-81 cells; assay: MTS cytotoxicity assay, Vero CCL-81 cells; conditions: up to 100 μM
[24] = rats; cited from earlier work
[25] = tested on: SARS-CoV-2 in Vero cells; conditions: read-out: EC50, virus replication in Vero cells; cited from earlier work
[26] = tested on: Vero CCL-81 cells
[27] = tested on: COVID-19 / SARS-CoV-2 infection; conditions: COVID-OUT, cited from earlier work
[28] = in vivo; cited from earlier work
[29] = 10 mg/kg (in cats); cited from earlier work
[30] = Severe acute respiratory syndrome coronavirus 2, Calu-3, 72 h
[31] = Severe acute respiratory syndrome coronavirus 2, Calu-3, MOI 0.01, 72 h, 2% FBS

`C=CCc1ccc(O)c(-c2ccc(O)c(CC=C)c2)c1` [Honokiol] gave an EC50 [1, 30] of 69.2 µM, an EC90 [1, 30] of 94 µM and an EC50 ([2]; Severe acute respiratory syndrome coronavirus 2, 48 h, read-out: Vero CCL-81 SARS-CoV-2 EC50) of 20.1 µM. The EC90 ([2]; Severe acute respiratory syndrome coronavirus 2, 48 h, read-out: Vero CCL-81 SARS-CoV-2 EC90) was 84 µM, the “CEM CC50 {Unbound}” value [3] was 28.6 {26.8} μM and the EC50 [4] was 13 µM. The CC50 [5] was 18.4 µM, the CC50 [6] was 40.4 µM and the CC50 ([7]; CEM CC50, 4 days) was 28.6 µM. For the same compound, the CC50 ([7]; CEM CC50 {Unbound}) was 26.7 µM, the “Fun (unbound fraction of drug in plasma)” value ([8]; Table 1, ref column Refs of Table 1) was 0.36 and the CC50 [9] was 54 µM. For the same compound, the EC50 [10] was 9.6 µM and the EC90 [10] was 80.4 µM.
In the case of `Cc1cc(C2=NO[C@@](c3cc(Cl)c(Cl)c(Cl)c3)(C(F)(F)F)C2)sc1C(=O)NCC(=O)NCC(F)(F)F` [Lotilaner], the EC50 ([2]; Severe acute respiratory syndrome coronavirus 2, 48 h, read-out: Vero CCL-81 Cells EC50) is reported as 1.9 µM, the EC90 ([2]; Severe acute respiratory syndrome coronavirus 2, 48 h, read-out: Vero CCL-81 Cells EC90) is reported as 4.9 µM and the “Cmax (μM) {unbound}” value [11] is reported as 0.007 µM. It also gave a CC50 [6] of 44.3 µM.
With `N#C[C@@]1(c2ccc3c(N)ncnn23)O[C@H](CO)[C@@H](O)[C@H]1O` [GS-441524] the EC50 [1, 31] was 0.3 µM, the EC90 [1, 31] was 2.34 µM and the EC50 ([2]; Severe acute respiratory syndrome coronavirus 2, Table 1 drugs, MOI 0.1, 48 h, 2% FBS, read-out: Vero CCL-81 SARS-CoV-2 EC50) was 0.8 µM. The EC90 ([2]; Severe acute respiratory syndrome coronavirus 2, Table 1 drugs, MOI 0.1, 48 h, 2% FBS, read-out: Vero CCL-81 SARS-CoV-2 EC90) was 1.4 µM, the “Caco-2 Unbound Cmax/EC50” value [12] was 30 and the “Cmax (μM) {unbound}” value [13] was 2.41 µM. It also gave a CC50 at 3 days [14] of over 100 µM, a CC50 at 3 days [5] of over 100 µM and a CC50 at 3 days [6] of over 100 µM. The CC50 at 5 days [15] was over 100 µM, the CC50 at 4 days [7] was over 100 µM and the CC50 at 4 days [16] was over 100 µM. The “Fun (unbound fraction of drug in plasma)” value ([8]; plasma) was 0.79, the “plasma t1/2” value [17] was 6 to 7 h and the oral bioavailability [18] was under 10%. The oral bioavailability [19] was “about 3%”, the oral bioavailability [20] was about 89% and the EC50 [10] was 0.08 µM. For the same compound, the EC90 [10] was 1.4 µM.
For `c1coc(CNc2ncnc3[nH]cnc23)c1` [kinetin, N^6-furfurylaminopurine], the “antiviral activity in Vero CCL-81 cells (in words)” value ([2]; NAs and nucleoside-base precursors, evaluated up to 20 μM) is listed as “lack of antiviral activity”, the “anti-SARS-CoV-2 activity (in words), concentrations up to 100 μM” value (“anti-SARS-CoV-2 activity (in words)” for short) [2] is listed as “did not inhibit SARS-CoV-2” and the oral bioavailability [21] is listed as 50%. The “bound to plasma proteins” value [22] was ~ 80% and the “cytotoxicity (in words), up to 100 μM” value [23] was “not cytotoxic”.
In the case of `C=CCc1ccc(O)c(-c2cc(CC=C)ccc2O)c1` [Magnolol], the oral bioavailability [24] is given as 4%.
For `CC(C)(Oc1ccc(C(=O)c2ccc(Cl)cc2)cc1)C(=O)O` [fenofibric acid], the EC50 [25] is listed as 7 µM.
With `CN(C)C(=N)N=C(N)N` [metformin] the “anti-SARS-CoV-2 activity (in words)” value [2] was “inactive”, the “anti-SARS-CoV-2 activity (in words)” value ([2]; listed as Metformin) was “did not observe an EC50” and the “cytotoxicity (in words), up to 100 μM” value ([26]; African green monkey) was “did not observe an EC50 or cytotoxicity”. For the same compound, the “absolute reduction in long COVID incidence compared with placebo” value [27] was 4.1%, the “reduction of the incidence of long COVID” value ([27]; outpatient treatment) was “about 41%” and the “plasma Cmax (bound + unbound)” value [28] was 10200 nM.
In the case of `CC(C)C[C@H](NC(=O)OCc1ccccc1)C(=O)N[C@@H](CC1CCNC1=O)C(O)S(=O)(=O)O` (stereo partly drawn) [GC376], the EC50 ([2]; read-out: Vero CCL-81 Cells EC50) is reported as 0.2 µM, the EC90 ([2]; read-out: Vero CCL-81 Cells EC90) is reported as 0.6 µM and the CC50 [26] is reported as over 100 µM. For the same compound, the Cmax [29] was 1700 nM.
